Test results as given in article PMC3787887 (International Journal of Oncology, 2013).
Values joined by “and” are separate entries in the source; they are usually repeats but may differ in a detail not shown here. Equal values may be shown once. Values belong to the compound of their own block, whether it stands above or below them.

Tests used:
[1] = system: A549 cells; experiment: Cellular uptake of PS, A549; type: cell-based, human; conditions: 1 h; for increase in the intracellular accumulation of PS by transporter inhibitor: co-incubation with 100 μM PS
[2] = system: SW480 cells; experiment: Cellular uptake of PS, SW480; type: cell-based, human; conditions: 1 h; for enhancement of the cellular accumulation of PS by transporter inhibitor: co-incubation with 100 μM PS
[3] = system: A549 cells; experiment: Cell growth inhibition; type: cell-based, human; conditions: PS 80 μM 24 h, curcumin 100 μM pretreatment
[4] = system: A549 xenografts; experiment: A549 subcutaneous xenografts in nude mice; type: in vivo; conditions: for inhibition of human lung cancer xenografts (abstract, measure not named): PS 200 mg/kg, curcumin 500 mg/kg, oral gavage; for tumor volume at the end of the study: day 36, mean ± SEM; for reduction in tumor volume: end of study
[5] = system: human lung cancer xenografts; conditions: cited from earlier work
[6] = system: A549 cells; experiment: Apoptotic cell death analysis; type: cell-based, human; conditions: 20-h incubation
[7] = Pharmacokinetic study in mice, plasma PS metabolites by HPLC; type: in vivo
[8] = Plasma and tumor drug levels at end of xenograft study; type: in vivo, nude mice
[9] = system: lung cancer; conditions: pre-clinical models of lung cancer; cited from earlier work
[10] = PS 200 mg/kg/d, curcumin 500 mg/kg/d
[11] = vs control, PS 200 mg/kg/d, curcumin 500 mg/kg/d
[12] = plasma metabolite after PS 200 mg/kg + curcumin 500 mg/kg in 10% Tween-80
[13] = plasma metabolite after PS 200 mg/kg + curcumin 500 mg/kg in micelles
[14] = plasma metabolite after single oral dose PS 200 mg/kg alone
[15] = curcumin 25 μM co-added with PS

Compound: COc1ccc2c3c([nH]c2c1)[C@H](CC(C)C)N1C(=O)[C@H](CCC(=O)OC(C)(C)C)NC(=O)[C@@H]1C3 [Ko143]
increase in the intracellular accumulation of PS by transporter inhibitor [1]: no effect

Compound: CN(C)C(=O)CCSC(SCCC(=O)O)c1cccc(/C=C/c2ccc3ccc(Cl)cc3n2)c1 (stereo not shown) [MK571]
increase in the intracellular accumulation of PS by transporter inhibitor [1]: 51%
enhancement of the cellular accumulation of PS by transporter inhibitor [2]: 30%

Compound: COc1cc(/C=C/C(=O)CC(=O)/C=C/c2ccc(O)c(OC)c2)ccc1O [curcumin, Curcumin, reference compound]
reduction of cell viability [3]: 4%
inhibition of human lung cancer xenografts (abstract, measure not named) [4]: no effect
adverse effects on the mice during the study [4, 10]: no apparent adverse effects
body weight at sacrifice [4, 10]: 23 ± 1 g
effect on the growth of A549 xenografts (in words) [4, 10]: did not significantly inhibit
tumor volume at the end of the study [4, 10]: 599±98 mm^3
reduction in tumor volume [4, 11]: no inhibition
increase of intracellular levels of PS ([1]; curcumin 5 μM co-added with PS): 23%
increase of intracellular levels of PS [1, 15]: 60%
efficacy as a single agent [9]: < 30%
increase of uptake of PS ([2]; curcumin 5 μM co-added with PS): 37%
increase of uptake of PS [2, 15]: 54%

Compound: COc1ccc(CCN(C)CCCC(C#N)(c2ccc(OC)c(OC)c2)C(C)C)cc1OC (stereo not shown) [verapamil]
increase in the intracellular accumulation of PS by transporter inhibitor [1]: no effect
enhancement of the cellular accumulation of PS by transporter inhibitor [2]: 67%

Continued, in another order:

intact PS in plasma ([7]; any of the three treatments): not detected
total plasma AUC0–24 h (sum of all metabolites) ([7]; single oral dose PS 200 mg/kg, curcumin 500 mg/kg): 211 µM·h
Compound: CCOP(=O)(OCC)OCCCCOC(=O)CC1=C(C)/C(=C/c2ccc([S+](C)[O-])cc2)c2ccc(F)cc21 (stereo not shown) [PS, Phospho-sulindac]
reduction of cell viability [3]: 30%
inhibition of human lung cancer xenografts (abstract, measure not named) [4]: 25%
adverse effects on the mice during the study [4, 10]: no apparent adverse effects
body weight at sacrifice [4, 10]: 23 ± 1 g
effect on the growth of A549 xenografts (in words) [4, 10]: did not significantly inhibit
tumor volume at the end of the study [4, 10]: 419±36 mm^3
reduction in tumor volume [4, 11]: 19.6% and 20%
reduction in tumor weight ([4]; end-point, vs control, PS 200 mg/kg/d, curcumin 500 mg/kg/d): 27%
efficacy as a single agent in the treatment of human lung cancer xenografts [5]: ineffective
percentage of apoptotic cells ([6]; PS 80 μM alone or with curcumin 100 μM): 3.9%
percentage of apoptotic cells ([6]; PS 100 μM alone or with curcumin 100 μM): 5.0%

level in A549 xenografts, PS plus curcumin group vs PS alone group [8]: 3 fold higher
Compound: CSc1ccc(/C=C2/C(C)=C(CC(=O)O)c3cc(F)ccc32)cc1 [Sulindac sulfide, sulindac sulfide]

level in A549 xenografts, PS plus curcumin group vs PS alone group [8]: 5 fold higher
Cmax [7, 12]: 11.7 µM
Tmax [7, 12]: 4 h
Cmax [7, 13]: 7.7 µM
Tmax [7, 13]: 4 h
Cmax [7, 14]: 5.6 µM
Tmax [7, 14]: 4 h
Compound: CC1=C(CC(=O)O)c2cc(F)ccc2/C1=C\c1ccc(S(C)(=O)=O)cc1 [Sulindac sulfone, sulindac sulfone]

level in A549 xenografts, PS plus curcumin group vs PS alone group [8]: 1 fold higher
increase of Cmax vs PS alone ([7]; PS co-administered with curcumin in 10% Tween-80): 70%
increase of Cmax vs PS alone ([7]; PS co-administered with curcumin in nanoparticles): 40%
Compound: CC1=C(CC(=O)O)c2cc(F)ccc2/C1=C\c1ccc([S+](C)[O-])cc1 (stereo not shown) [Sulindac, sulindac, reference compound]

level in the plasma ([8]; curcumin and PS plus curcumin groups): minute levels
Compound: COc1cc(/C=C/C(=O)CC(=O)/C=C/c2ccc(O[C@@H]3O[C@H](C(=O)O)[C@@H](O)[C@H](O)[C@H]3O)c(OC)c2)ccc1O [curcumin glucuronide]
detection in A549 xenografts [8]: Neither curcumin, nor its glucuronide, was detected
